The test system of test [1] is marine bacteria strain S17. Nature of the test: disc inhibition assay, strain S17. Type of test: cell-based, Gordonia terrae. Particulars: for zone of inhibition: strain 17, 50 μg of compound per disc; for zone of inhibition at 50 µg/disc: Gordonia terrae, S17, 24 h. As to the method: (§1) The disc inhibition assay was used. This assay is a conventional method routinely used for screening antibacterial compounds to determine degree of susceptibility to antibacterial compounds. The diameter of the zone of inhibition is proportional to the degree of susceptibility of the bacterial strain. The compounds were tested against 13 strains of marine bacteria isolated from Singapore coastal waters.
(§2) 13 strains of marine bacteria were isolated from fouling communities located in the coastal waters around Singapore. These were characterized in earlier studies and reported in Teo et al. (U.S. patent application Ser. No. 11/265,833) and Choong et al (in prep). In addition, four reference bacterial strains were added tested: Escherichia coli (Strain K12, ATCC 15222), E. coli (strain DH5a), Pseudomonas aeruginosa (strain LMG 12228; ATCC 15692) and P. putida (strain KT2440; ATCC 47054). All the bacteria were also tested against five antibiotics: ampicillin (AMP), tetracycline (TETR), erythromycin (ERY), chloramphenicol (CHL) and streptomycin (STREP).
(§3) Disks comprising the compounds to be tested were prepared as follows. The antibacterial assay, the pure compounds were made up to a concentration of 2 mgml^−1 in DMSO. 25 μl of the stock was pipetted onto each 6 mm sterile disc (Macherey-Nagel #484000) to obtain 50 μg of compound per disc. Equivalent volume of DMSO was used inoculated for the control.
(§4) For all disk inhibition assays, bacterial cultures were grown in marine broth (Pronadisa #1217.00). Sterile swabs dipped into the cultures were used to inoculate Marine Agar plates with a bacterial lawn by smearing the culture over the surface. After inoculating the plates, discs with antibiotics, pharmaceuticals or control blanks were placed on each plate. Each concentration of antibiotic or pharmaceutical was tested with two replicates. After the disks were placed on the agar surface, plates were incubated overnight in the dark at 35° C. After incubation, plates were examined for zones of inhibition or clearing around control and treated disks. The diameter of any zone of clearing or inhibition was measured using Vernier calipers. There were two replicates per treatment, and the average was taken.

For test [2], the system named is marine bacteria strain S18. Nature of the test: disc inhibition assay, strain S18. Type of test: cell-based, Microbacterium esteraromaticum. The following applies: for zone of inhibition: strain 18, 50 μg of compound per disc; for zone of inhibition at 50 µg/disc: Microbacterium esteraromaticum, S18, 24 h. Here is the method: as §1, §2
(§5) Disks comprising the compounds to be tested were prepared as follows. The antibacterial assay, the pure compounds were made up to a concentration of 2 mgml^−1 in DMSO. […] Equivalent volume of DMSO was used inoculated for the control.
as §4

Test [3] relates to marine bacteria strain S30. Nature of the test: disc inhibition assay, strain S30. Particulars: for zone of inhibition: strain 30, 50 μg of compound per disc; for zone of inhibition at 50 µg/disc: Bacillus, S30, 24 h. The format is cell-based, Bacillus borophilicus. As to the method: as §1, §2, §3, §4
Test [4] concerns marine bacteria strain S10. Nature of the test: disc inhibition assay, strain S10. The following applies: for zone of inhibition at 50 µg/disc: Halobacillus trueperi, S10, 24 h. The format is cell-based, Halobacillus trueperi. As to the method: as §1, §2, §3, §4
The subject of test [5] is marine bacteria strain S27. Nature of the test: disc inhibition assay, strain S27. Type of test: cell-based, Tenacibaculum lutimaris. Particulars: strain 27, 50 μg of compound per disc. As to the method: as §1, §2, §3, §4
The test system of test [6] is marine bacteria strain S14. Nature of the test: disc inhibition assay, strain S14. Type of test: cell-based, Vibrio probioticus. Particulars: strain 14, 50 μg of compound per disc. Here is the method: as §1, §2, §5, §4
Test [7] deals with marine bacteria strain S16. Nature of the test: disc inhibition assay, strain S16. The format is cell-based, Pseudoalteromonas piscicida. Particulars: for zone of inhibition at 50 µg/disc: Pseudoalteromonas piscicida, S16, 24 h; for antibacterial activity in words: strain S16. As to the method:
as §1, §2, §3, §4

For test [8], the system named is marine bacteria strain S3. Nature of the test: disc inhibition assay, strain S3. The following applies: for zone of inhibition at 50 µg/disc: Qipengyuania aquimaris, S3, 24 h. Type of test: cell-based, Erythrobacter aquimaris. As to the method:
as §1, §2, §3, §4

Test [9] deals with marine bacteria strain S28. Nature of the test: disc inhibition assay, strain S28. Particulars: for zone of inhibition: strain 28, 50 μg of compound per disc; for zone of inhibition at 50 µg/disc: Arthrobacter, S28, 24 h. The format is cell-based, Arthrobacter protophormial. As to the method:
as §1, §2, §3, §4

Test [10] deals with marine bacteria strain S29. Nature of the test: disc inhibition assay, strain S29. Type of test: cell-based, Bacillus hwajinpoensis. The following applies: for zone of inhibition: strain 29, 50 μg of compound per disc; for zone of inhibition at 50 µg/disc: Guptibacillus hwajinpoensis, S29, 24 h. Here is the method:
as §1, §2, §3, §4

Test [11] has as its system marine bacteria strain S4. Nature of the test: disc inhibition assay, strain S4. The following applies: for zone of inhibition: strain 4, 50 μg of compound per disc; for zone of inhibition at 50 µg/disc: Guptibacillus algicola, S4, 24 h. Type of test: cell-based, Bacillus algicola. As to the method: as §1, §2, §3, §4
For test [12], the system named is marine bacteria strain S1. Nature of the test: disc inhibition assay, strain S1. Type of test: cell-based, Rhodovulum iodosum. Particulars: for zone of inhibition: strain 1, 50 μg of compound per disc. As to the method: as §1, §2, §3, §4
Test [13] deals with marine bacteria strain S9. Nature of the test: disc inhibition assay, strain S9. Type of test: cell-based, Bacillus algicola. Particulars: for zone of inhibition: strain 9, 50 μg of compound per disc; for zone of inhibition at 50 µg/disc: Guptibacillus algicola, S9, 24 h. Here is the method:
as §1, §2, §3, §4

[14] abbreviates: strain 10, 50 μg of compound per disc.
Where [15] appears, read: strain 16, 50 μg of compound per disc.
[16] abbreviates: strain 3, 50 μg of compound per disc.
[17] abbreviates: strain 16, 50 μg of compound per disc, read-out: zone of inhibition.

Where two headings read alike, the source gives them in different places.

A word on the zone of inhibition: it is the extent of the growth-free halo in a diffusion test. In the case of `O=C(C(c1ccccc1)c1ccccc1)N1CCC(O)(c2ccc(Cl)cc2)CC1` [Compound 4.3], the zone of inhibition entry in test [1], in [2], in test [3], in test [4] (setting [14]), in test [5] and in test [6] was “−” each time. In addition, the zone of inhibition result in [7] (setting [15]), in test [9], in test [10], in [11], in test [12] and in test [13] was “−” throughout. Further, in [8] (strain 3, 50 μg of compound per disc, read-out: zone of inhibition), the zone of inhibition at 50 µg/disc lay in the range of 2 to 5 mm.
Consider `CN(C)C(=O)C(CC[N+]1(C)CCC(O)(c2ccc(Cl)cc2)CC1)(c1ccccc1)c1ccccc1` (stereo not drawn) [Compound 4.7], for which the zone of inhibition at 50 µg/disc lay within 2 to 5 mm in test [1]; 2 to 5 mm in [2]; 2 to 5 mm in [3]; 5 to 10 mm in test [4]; 2 to 5 mm in test [7]; 5 to 10 mm in [8]. Moreover, the zone of inhibition at 50 µg/disc in [9], in test [10], in test [11] and in test [13] was 5 to 10 mm in each case. Besides, the zone of inhibition entry in test [5], in test [6] and in [12] was “−” throughout.
Consider `CN(C)C(=O)C(CC[N+]1(O)CCC(O)(c2ccc(Cl)cc2)CC1)(c1ccccc1)c1ccccc1` (stereo not drawn) [Compound 5.1], for which the zone of inhibition at 50 µg/disc in test [1], in test [7] and in test [8] was 2 to 5 mm throughout. The zone of inhibition entry in test [2], in [3], in test [4] (setting [14]), in [5], in test [6] and in test [9] was “−” each time. Also, the zone of inhibition entry in [10], in test [11], in test [12] and in test [13] was “−” in each case.
With `COC1(c2ccc(Cl)cc2)CC[N+](C)(CCC(C(=O)N(C)C)(c2ccccc2)c2ccccc2)CC1` (stereo not drawn) [Compound 5.2, N,O-dimethyl Loperamide], the zone of inhibition at 50 µg/disc was 2 to 5 mm in test [1]; more than 10 mm in test [2]; 5 to 10 mm in [3]; 5 to 10 mm in test [4]; 2 to 5 mm in test [7]; 5 to 10 mm in [8]. For the same compound, the zone of inhibition at 50 µg/disc fell in the range of 5 to 10 mm in [9]; 5 to 10 mm in [10]; 5 to 10 mm in test [11]; 2 to 5 mm in [12] (Rhodovulum iodosum, S1); 5 to 10 mm in test [13]. In addition, the zone of inhibition result in test [5] and in test [6] was “−” each time. The “antibacterial activity in words” value in [12] (strain S1, text) is recorded as “had activity”.
As for `CC(=O)OC1(c2ccc(Cl)cc2)CCN(CCC(C(=O)N(C)C)(c2ccccc2)c2ccccc2)CC1` [Compound 5.3], the zone of inhibition at 50 µg/disc was 2 to 5 mm in [1]; 2 to 5 mm in test [2]; 2 to 5 mm in test [3]; 5 to 10 mm in [4]; 5 to 10 mm in [8]; 2 to 5 mm in [9]. Also, the zone of inhibition at 50 µg/disc in [10], in test [11] and in test [13] was 2 to 5 mm each time. Besides, the zone of inhibition entry in test [5], in test [6], in test [7] (setting [15]) and in test [12] was “−” throughout.
Take `CN(C)C(=O)C(CCN1CCCCC1)(c1ccccc1)c1ccccc1` [Compound 9.1, N, N-Dimethyl-2,2-diphenyl-4-(piperidin-1-yl)butanamide]: the zone of inhibition entry in [1], in test [3], in [4] (setting [14]), in test [5], in test [6] and in [7] (setting [15]) was “−” each time. Besides, the zone of inhibition result in test [8] (setting [16]), in test [9], in [10], in test [11] and in [12] was “−” each time. Moreover, the zone of inhibition at 50 µg/disc in [2] and in test [13] was 2 to 5 mm in each case.
With `O=C(C(c1ccccc1)c1ccccc1)N1CCC(O)CC1` [Compound 9.3], the zone of inhibition result in test [1], in [2], in test [3], in test [5], in test [6] and in test [8] (setting [16]) was “−” each time. Also, the zone of inhibition entry in [9], in test [10], in test [11], in test [12] and in test [13] was “−” each time. Besides, the zone of inhibition at 50 µg/disc in [4] (strain 10, 50 μg of compound per disc, read-out: zone of inhibition) is 2 to 5 mm; in [7] (setting [17]), 2 to 5 mm.
For the compound `O=C(Cc1ccccc1)N1CCCCC1` [Compound 10.5], the zone of inhibition entry in test [1], in test [2], in [3], in test [4] (setting [14]), in [5] and in [6] was “−” in each case. The zone of inhibition entry in test [8] (setting [16]), in test [9], in [10], in test [11], in [12] and in test [13] was “−” in each case. The zone of inhibition at 50 µg/disc in [7] (setting [17]) lay within 5 to 10 mm.
`CCCCCC(=O)N1CCCCC1` [Compound 11.1]: the zone of inhibition result in test [1], in [2], in test [3], in test [4] (setting [14]), in test [5] and in [6] was “−” in each case. Further, the zone of inhibition result in test [8] (setting [16]), in test [9], in test [10], in [11], in test [12] and in test [13] was “−” throughout. The zone of inhibition at 50 µg/disc in test [7] (setting [17]) was in the range of 5 to 10 mm. Besides, the “antibacterial activity in words” value in [7] is listed as “susceptible”.
Regarding `C/C=C/C=C/C(=O)N1CCCCC1` [Compound 11.4], in test [7], the “antibacterial activity in words” value is listed as “susceptible”.
